For 4 compounds, Ki results are on record in ChEMBL document CHEMBL1128876, “Nitrogen transfer in E. coli glucosamine-6P synthase. Investigations using substrate and bisubstrate analogs” (Bioorg Med Chem Lett, 1995).

A short description of experiment [1]: Tested for inhibition of glucosamine-6P synthase. Also on record: species or system Escherichia coli.
The nature of experiment [2]: Tested for inhibition of fructose-6P synthase.

Usually Ki stands for a measure of affinity in units of concentration, obtained from inhibition or displacement. Higher therefore signals a looser hold on the target.

In experiment [1], `NC(=O)/C=C/C(=O)NCC(N)C(=O)O` (centres undefined) yielded a Ki of 0.15 µM. `NC(CC1CCC(=O)C2OC12)C(=O)O` (centres undefined) came in with a Ki in experiment [1] of 0.22 µM. Regarding `NC(CO)C(O)C(O)C(O)COP(=O)(O)O` (centres undefined), the Ki in experiment [2] was determined as 25 µM.

As for `O=C(O)C1CCC=N1` (racemic), the inhibition constant (Ki) in experiment [1] came to 23 µM.
